Data taken from US11708348B2, “Protease inhibitors for treatment of coronavirus infections” (The Scripps Research Institute, priority 2021, dated 2023).

What follows are compounds tested on SARS-CoV-2 strain USA-WA1/2020 (assay: microbe, parasite or virus in culture). Conditions: Severe acute respiratory syndrome coronavirus 2, HeLa-ACE2, 24 h, HeLa-ACE2 cells, SARS-CoV-2 infection, 24 h; bound printed in cell; read-out: EC50, uM (Hela).
Type: cell-based

**Q.** For O=C(NC1CS(=O)(=O)C1)C(=O)N[C@@H](CC1CC1)C(=O)N[C@@H](C[C@@H]1CCNC1=O)C(=O)COC(F)(F)F [Compound 234, N1-((S)-3-cyclopropyl-1-oxo-1-(((S)-3-oxo-1-((S)-2-oxopyrrolidin-3-yl)-4-(trifluoromethoxy)butan-2-yl)amino)propan-2-yl)-N2-(l,1-dioxidothietan-3-yl)oxalamide], which EC50 is on record?
**A.** > 1 µM

**Q.** With O=C1NCC[C@H]1C[C@H](NC(=O)[C@@H]1CC2(CC2)CN1C(=O)C(O)C1CCS(=O)(=O)CC1)C(=O)COC(F)(F)F (stereo partly drawn) [Compound 388, (6S)-5-(2-(l,l-dioxidotetrahydro-2H-thiopyran-4-yl)-2-hydroxyacetyl)-N-((S)-3-oxo-1-((S)-2-oxopyrrolidin-3-yl)-4-(trifluoromethoxy)butan-2-yl)-5-azaspiro[2.4]heptane-6-carboxamide] as the compound, how does the EC50 read?
**A.** > 1 µM

**Q.** How did the EC50 turn out when CC(C)C[C@H](NC(=O)[C@H](CCCCN)NC(=O)c1ccccc1F)C(=O)N[C@@H](C[C@@H]1CCNC1=O)C(=O)COC(F)(F)F [Compound 208, N-((S)-6-amino-1-(((S)-4-methyl-1-oxo-1-(((S)-3-oxo-1-((S)-2-oxopyrrolidin-3-yl)-4-(trifluoromethoxy)butan-2-yl)amino)pentan-2-yl)amino)-1-oxohexan-2-yl)-2-fluorobenzamide] was run?
**A.** > 1 µM

Same assay, conditions: Severe acute respiratory syndrome coronavirus 2, HeLa-ACE2, 24 h, HeLa-ACE2 cells, SARS-CoV-2 infection, 24 h; class symbols; read-out: EC50, uM (Hela)

**Q.** With Cc1cccc(F)c1NC(=O)C(=O)N[C@@H](CC(C)C)C(=O)N[C@@H](C[C@@H]1CCNC1=O)C(=O)COc1c(F)c(F)cc(F)c1F [Compound 82, N1-(2-fluoro-6-methylphenyl)-N2-((S)-4-methyl-1-oxo-1-(((S)-3-oxo-1-((S)-2-oxopyrrolidin-3-yl)-4-(2,3,5,6-tetrafluorophenoxy)butan-2-yl)amino)pentan-2-yl)oxalamide] as the compound, how does the EC50 read?
**A.** < 0.05 µM

**Q.** CC(C)C[C@H](NC(=O)C(=O)N1CCCc2ccccc21)C(=O)N[C@@H](C[C@@H]1CCNC1=O)C(=O)COc1c(F)c(F)cc(F)c1F [Compound 149, (S)-2-(2-(3,4-dihydroquinolin-1(2H)-yl)-2-oxoacetamido)-4-methyl-N-((S)-3-oxo-l-((S)-2-oxopyrrolidin-3-yl)-4-(2,3,5,6-tetrafluorophenoxy)butan-2-yl)pentanamide] was tested. Which EC50 did it give?
**A.** 0.05 to 0.2 µM

**Q.** How did the EC50 turn out when CCC[C@@H](O)C(=O)N1C[C@H]2[C@@H]([C@H]1C(=O)N[C@@H](C[C@@H]1CCNC1=O)C(=O)COC(F)(F)F)C2(C)C [Compound 378, (1R,2S,5S)-3-((R)-2-hydroxypentanoyl)-6,6-dimethyl-N-((S)-3-oxo-1-((S)-2-oxopyrrolidin-3-yl)-4-(trifluoromethoxy)butan-2-yl)-3-azabicyclo[3.1.0]-hexane-2-carboxamide] was run?
**A.** < 0.05 µM

**Q.** How did the EC50 turn out when O=C(Nc1ccccc1)C(=O)N[C@@H](CC1CCCC1)C(=O)N[C@@H](C[C@@H]1CCNC1=O)C(=O)COc1c(F)c(F)cc(F)c1F [Compound 44, N1-((S)-3-cyclopentyl-1-oxo-1-(((S)-3-oxo-1-((S)-2-oxopyrrolidin-3-yl)-4-(2,3,5,6-tetrafluorophenoxy)butan-2-yl)amino)propan-2-yl)-N2-phenyloxalamide] was run?
**A.** < 0.05 µM

**Q.** Which EC50 does the source give for CC(C)C[C@H](NC(=O)C(=O)Nc1cc(F)c(Br)c(F)c1)C(=O)N[C@@H](C[C@@H]1CCNC1=O)C(=O)COc1c(F)c(F)cc(F)c1F [Compound 87, N1-(4-bromo-3,5-difluorophenyl)-N2-((S)-4-methyl-1-oxo-1-(((S)-3-oxo-1-((S)-2-oxopyrrolidin-3-yl)-4-(2,3,5,6-tetrafluorophenoxy)butan-2-yl)amino)pentan-2-yl)oxalamide] here?
**A.** 0.05 to 0.2 µM

**Q.** For CC(C)C[C@H](NC(=O)C(=O)NCC1CCCC1)C(=O)N[C@@H](C[C@@H]1CCNC1=O)C(=O)COc1c(F)c(F)cc(F)c1F [Compound 81, N^1-(cyclopentylmethyl)-N^2—((S)-4-methyl-1-oxo-1-(((S)-3-oxo-1-((S)-2-oxopyrrolidin-3-yl)-4-(2,3,5,6-tetrafluorophenoxy)butan-2-yl)amino)pentan-2-yl)oxalamide], which EC50 is on record?
**A.** 0.05 to 0.2 µM

**Q.** How did the EC50 turn out when CC(C)(O)C(=O)N1C[C@@H]2CCC[C@@H]2[C@H]1C(=O)N[C@@H](C[C@@H]1CCNC1=O)C(=O)COC(F)(F)F [Compound 352, (1S,3aR,6aS)-2-(2-hydroxy-2-methylpropanoyl)-N-((S)-3-oxo-1-((S)-2-oxopyrrolidin-3-yl)-4-(trifluoromethoxy)butan-2-yl)octahydrocyclo-penta[c]pyrrole-1-carboxamide] was run?
**A.** 0.05 to 0.2 µM

Same assay, conditions: Severe acute respiratory syndrome coronavirus 2, HeLa-ACE2, 24 h, HeLa-ACE2 cells, SARS-CoV-2 infection, 24 h; read-out: EC50, uM (Hela)

**Q.** CC(C)C[C@H](NC(=O)C(=O)Nc1ccccc1F)C(=O)N[C@@H](CCS(C)(=O)=O)C(=O)COc1c(F)c(F)cc(F)c1F [Compound 655, N1-(2-fluorophenyl)-N2-((S)-4-methyl-1-(((S)-5-(methylsulfonyl)-2-oxo-1-(2,3,5,6-tetrafluorophenoxy)pentan-3-yl)amino)-1-oxopentan-2-yl)oxalamide] was tested. Which EC50 did it give?
**A.** 0.5 to 1 µM

**Q.** How did the EC50 turn out when CC1(C)[C@@H]2[C@@H](C(=O)N[C@@H](C[C@@H]3CCNC3=O)C(=O)COC(F)(F)F)N(C(=O)C3(O)CCC(F)(F)CC3)C[C@@H]21 [Compound 630, (1R,2S,5S)-3-(4,4-difluoro-1-hydroxycyclohexane-1-carbonyl)-6,6-dimethyl-N-((S)-3-oxo-1-((S)-2-oxopyrrolidin-3-yl)-4-(trifluoromethoxy)butan-2-yl)-3-azabicyclo[3.1.0]hexane-2-carboxamide] was run?
**A.** 0.05 to 0.2 µM

**Q.** Which EC50 does the source give for O=C(Nc1ccccc1F)C(=O)N1CC2(C[C@H]1C(=O)N[C@@H](C[C@@H]1CCNC1=O)C(=O)COC(F)(F)F)CC2(F)F (stereo partly drawn) [Compound 482, (6S)-1,1-difluoro-5-(2-((2-fluorophenyl)amino)-2-oxoacetyl)-N-((S)-3-oxo-1-((S)-2-oxopyrrolidin-3-yl)-4-(trifluoromethoxy)butan-2-yl)-5-azaspiro[2.4]heptane-6-carboxamide] here?
**A.** 0.05 to 0.2 µM

**Q.** O=C1NCC[C@H]1C[C@H](NC(=O)[C@@H]1CC2(CC2)CN1C(=O)C(F)(F)c1ccccc1)C(=O)COC(F)(F)F [Compound 616, (S)-5-(2,2-difluoro-2-phenylacetyl)-N-((S)-3-oxo-1-((S)-2-oxopyrrolidin-3-yl)-4-(trifluoromethoxy)butan-2-yl)-5-azaspiro[2.4]heptane-6-carboxamide] was tested. Which EC50 did it give?
**A.** < 0.05 µM

**Q.** Which EC50 does the source give for CC(C)C[C@H](C(=O)N1CC2(CC2)C[C@H]1C(=O)N[C@@H](C[C@@H]1CCNC1=O)C(=O)COC(F)(F)F)N(C)C(=O)OC(C)(C)C [Compound 645, tert-butyl methyl((R)-4-methyl-1-oxo-1-((S)-6-(((S)-3-oxo-1-((S)-2-oxopyrrolidin-3-yl)-4-(trifluoromethoxy)butan-2-yl)carbamoyl)-5-azaspiro[2.4]heptan-5-yl)pentan-2-yl)carbamate] here?
**A.** 0.05 to 0.2 µM

**Q.** How did the EC50 turn out when O=C1NCC[C@H]1C[C@H](NC(=O)[C@@H]1CC2(CC2)CN1C(=O)COCC(F)(F)F)C(=O)COC(F)(F)F [Compound 673, (S)-N-((S)-3-oxo-1-((S)-2-oxopyrrolidin-3-yl)-4-(trifluoromethoxy)butan-2-yl)-5-(2-(2,2,2-trifluoroethoxy)acetyl)-5-azaspiro[2.4]heptane-6-carboxamide] was run?
**A.** 0.05 to 0.2 µM

**Q.** CC1(C)[C@@H]2[C@@H](C(=O)N[C@@H](C[C@@H]3CCNC3=O)C(=O)COC(F)(F)F)N(C(=O)c3csc(C(F)(F)F)n3)C[C@@H]21 [Compound 468, (1R,2S,5S)-6,6-dimethyl-N-((S)-3-oxo-1-((S)-2-oxopyrrolidin-3-yl)-4-(trifluoromethoxy)butan-2-yl)-3-(2-(trifluoromethyl)-thiazole-4-carbonyl)-3-azabicyclo[3.1.0]-hexane-2-carboxamide] was tested. Which EC50 did it give?
**A.** 0.05 to 0.2 µM
